{
  "source": "patent US20240018105A1",
  "about": "“TROPOLONE DERIVATIVES AND TAUTOMERS THEREOF FOR IRON REGULATION IN ANIMALS” (Kinesid Therapeutics, Inc., priority 2019, published 2024)",
  "data": [
    {"assay": "Ligand facilitated Fe(III) efflux from liposomes", "conditions": "10 uM ligand concentration; Table 1", "protocol": "(§1) Assay 1: Ligand Facilitated Fe(III) Efflux from Liposomes Preparation of POPC (1-palmitoyl-2-oleoyl-sn-glycero-3-phosphocholine): Cholesterol Liposomes:\n(§2) A 1M buffer solution of MES and Tris was prepared by dissolving 121.14 grams of Tris base and 213.25 grams of MES hydrate in 500 mL of MilliQ water and adjusted to pH7.0 using an […] HCl solution before bringing the total volume of the solution to 1 L. A 500 mM solution of FeCl3 was prepared by dissolving 0.811 grams of anhydrous FeCl3 in 10 mL of a 0.1M H2SO4 aqueous solution. Inside buffer is prepared in a 50 mL falcon tube, which was added with 25 mL of MilliQ water, 1.61 g of sodium citrate, 1.5 mL of the above FeCl3 solution, and 2.5 mL of the 1M MES/Tris HCl buffer (pH=7.0), and finally additional MilliQ H2O to bring to a 50 mL final volume.\n(§3) Lipid solution is prepared by dissolving 206.9 mg of POPC (1-palmitoyl-2-oleoyl-sn-glycero-3-phosphocholine) and 8.6 mg of cholesterol in 10 mL of ethanol.\n(§4) The lipids solution and the inside buffer solution are independently loaded into 10 mL luer lock syringes for loading into a virgin cartridge on a Precision Nanosystems NanoAssembler to prepare unilamaller liposomes with the following parameters: 7.5 mL total volume, 1.5:1 mixing ratio of inside buffer:lipids solution, 8 mL/min flow rate, ambient temperature, 0.35 mL start waste, and 0.05 mL of end waste. 7.5 mL of liposomes is harvested for purification on a 6-inch long, 1-inch diameter Sephadex G-50 column wetted in 600 mM sodium ascorbate and 50 mM MES/Tris HCl pH 7.0 buffer. This buffer also serves as the column running buffer. The crude liposome solution is carefully loaded with minimal volume of running buffer above the top of the Sphadex, allowed to enter the matrix, and the column is run with the continued addition of running buffer. The eluting liposomes, observed as a milky and turbid solution, are collected until free iron begins to elute (observed as a deep purple color) and the fractions are pooled for phosphorus quantitation.\n(§5) Phosphorus content of eluted liposomes was determined by the process outlined below. 10 uL of liposome elution and a running buffer blank are added to a 5 mL glass vial containing 450 uL of a 8.9 M aqueous H2SO4 solution, the mixture is heated to 225° C. for 25 minutes in an aluminum heat block to hydrolyze POPC and cooled for 5 minutes. 200 ul of a 30% hydrogen peroxide aqueous solution is added to each vial and heated to 225° C. for 25 minutes. After cooling, the phosphorus content was determined using an Abcam Phosphate Assay kit, with buffer subtracted phosphorus levels determined against a standard curve of phosphate included in the kit. Liposomes were diluted to 1 mM phosphate in Running Buffer for use in assays after accounting for dilutions made during phospholipid digestion.\n(§6) Determination of the rate at which a small molecule ligand liberates (transport) Ferric iron from liposomes is performed in clear bottom black 384-well plates on a Spectramax i3x set to read the absorbance at 562 nm in the kinetic mode every 60 seconds for 120 minutes. 1 uL of serially diluted DMSO stock solution of a small molecule ligand is added to wells in triplicate to give the final concentrations of 40, 20, 10, 5, 2.5, and 1.25 uM of the ligand at 80 μL final volume, followed by addition of 1 μL of 100 mM Ferrozine in water to give a final concentration of 1 mM ferrozine. 78 uL of liposomes diluted to 1 mM phosphorus in running buffer is added to wells as quickly as possible (using a digital repeater mulchannel pipette) with the kinetic read initiated as rapidly as possible after addition of liposomes to all wells. Typically, eight compounds at six concentrations are tested in triplicate simultaneously.\n(§7) Upon completion of kinetic read, the data for individual reads is fitted to a single phase association regression with the equation Y=(Y0−YMax)^(−kX)+YMax, with Y being the 562 absorbance value and X being time in minutes. […]", "values": [
      {"molecule": "O=c1cccc(-c2ccncc2)cc1O", "note": "[Ex.7, 2-hydroxy-4-(pyridin-4-yl)cyclohepta-2,4,6-trien-1-one]", "Liposome Fe transport kefflux at 10 10 μM": "0.1-5"},
      {"molecule": "Nc1ccc(-c2cccc(=O)c(O)c2)cn1", "note": "[Ex.13, 4-(6-aminopyridin-3-yl)-2-hydroxycyclohepta-2,4,6-trien-1-one]", "Liposome Fe transport kefflux at 10 10 μM": "0.1-5"},
      {"molecule": "Cc1ccncc1-c1cccc(=O)c(O)c1", "note": "[Ex.14, 2-hydroxy-4-(4-methylpyridin-3-yl)cyclohepta-2,4,6-trien-1-one]", "Liposome Fe transport kefflux at 10 10 μM": "0.1-5"},
      {"molecule": "Cc1nc(C)c(-c2cccc(=O)c(O)c2)cc1F.O=C(O)C(F)(F)F", "note": "[Ex.20, 4-(5-fluoro-2,6-dimethylpyridin-3-yl)-2-hydroxycyclohepta-2,4,6-trien-1-one]", "Liposome Fe transport kefflux at 10 10 μM": "0.1-5"},
      {"molecule": "Cc1nc(C)c(-c2ccc(O)c(=O)cc2)cc1F.O=C(O)C(F)(F)F", "note": "[Ex.21, 5-(5-fluoro-2,6-dimethylpyridin-3-yl)-2-hydroxycyclohepta-2,4,6-trien-1-one]", "Liposome Fe transport kefflux at 10 10 μM": "0.1-5"},
      {"molecule": "O=c1ccc(-c2ccc(F)cn2)ccc1O", "note": "[Ex.22, 5-(5-fluoropyridin-2-yl)-2-hydroxycyclohepta-2,4,6-trien-1-one]", "Liposome Fe transport kefflux at 10 10 μM": "0.1-5"},
      {"molecule": "Cc1cc(-c2ccc(F)cn2)ccc(O)c1=O.O=C(O)C(F)(F)F", "note": "[Ex.25, 4-(5-fluoropyridin-2-yl)-7-hydroxy-2-methylcyclohepta-2,4,6-trien-1-one]", "Liposome Fe transport kefflux at 10 10 μM": "5-7.5"},
      {"molecule": "Cc1cccc(-c2cncc(F)c2)c(=O)c1O.O=C(O)C(F)(F)F", "note": "[Ex.27, 7-(5-fluoropyridin-3-yl)-2-hydroxy-3-methylcyclohepta-2,4,6-trien-1-one]", "Liposome Fe transport kefflux at 10 10 μM": "10-25"},
      {"molecule": "CSc1nccc(-c2ccccc(O)c2=O)n1", "note": "[Ex.40, 2-hydroxy-7-(2-(methylthio)pyrimidin-4-yl)cyclohepta-2,4,6-trien-1-one]", "Liposome Fe transport kefflux at 10 10 μM": "5-7.5"},
      {"molecule": "Nc1ncc(-c2cccc(=O)c(O)c2)cn1.O=C(O)C(F)(F)F", "note": "[Ex.41, 4-(2-aminopyrimidin-5-yl)-2-hydroxycyclohepta-2,4,6-trien-1-one]", "Liposome Fe transport kefflux at 10 10 μM": "0.1-5"},
      {"molecule": "O=c1cccc(-c2ncccn2)cc1O", "note": "[Ex.43, 2-hydroxy-4-(pyrimidin-2-yl)cyclohepta-2,4,6-trien-1-one]", "Liposome Fe transport kefflux at 10 10 μM": "5-7.5"},
      {"molecule": "O=c1ccc(-c2ncccn2)ccc1O", "note": "[Ex.44, 2-hydroxy-5-(pyrimidin-2-yl)cyclohepta-2,4,6-trien-1-one]", "Liposome Fe transport kefflux at 10 10 μM": "0.1-5"},
      {"molecule": "Cc1cncc(-c2cccc(=O)c(O)c2)c1", "note": "[Ex.55, 2-hydroxy-4-(5-methylpyridin-3-yl)cyclohepta-2,4,6-trien-1-one]", "Liposome Fe transport kefflux at 10 10 μM": "0.1-5"},
      {"molecule": "Cc1ncc(F)cc1-c1ccc(O)c(=O)cc1", "note": "[Ex.60, 5-(5-fluoro-2-methylpyridin-3-yl)-2-hydroxycyclohepta-2,4,6-trien-1-one]", "Liposome Fe transport kefflux at 10 10 μM": "0.1-5"}
    ]},
    {"assay": "Ligand facilitated Fe(III) efflux from liposomes", "conditions": "10 uM ligand concentration; Table 2", "protocol": "as §1, §2, §3, §4, §5, §6, §7", "values": [
      {"molecule": "CC(C)c1cccc(-c2cncc(F)c2)c(=O)c1O", "note": "[Ex.62, 7-(5-fluoropyridin-3-yl)-2-hydroxy-3-isopropylcyclohepta-2,4,6-trien-1-one]", "Liposome Fe transport Kefflux at 10 μM": "<0.1"},
      {"molecule": "Cc1c(F)cncc1-c1ccc(O)c(=O)c(C)c1", "note": "[Ex.63, 4-(5-fluoro-4-methylpyridin-3-yl)-7-hydroxy-2-methylcyclohepta-2,4,6-trien-1-one]", "Liposome Fe transport Kefflux at 10 μM": "10-25"},
      {"molecule": "Cc1c(F)cncc1-c1ccc(O)c(=O)c(C(C)C)c1", "note": "[Ex.64, 4-(5-fluoro-4-methylpyridin-3-yl)-7-hydroxy-2-isopropylcyclohepta-2,4,6-trien-1-one]", "Liposome Fe transport Kefflux at 10 μM": "<0.1"},
      {"molecule": "O=c1ccc(Oc2ccc(F)cc2)ccc1O", "note": "[Ex.65, 5-(4-fluorophenoxy)-2-hydroxycyclohepta-2,4,6-trien-1-one]", "Liposome Fe transport Kefflux at 10 μM": "5-7.5"},
      {"molecule": "O=c1ccccc(-c2c(F)cccc2F)c1O", "note": "[Ex.68, 3-(2,6-difluorophenyl)-2-hydroxycyclohepta-2,4,6-trien-1-one]", "Liposome Fe transport Kefflux at 10 μM": "7.5-10"},
      {"molecule": "O=c1ccccc(-c2ncccc2F)c1O", "note": "[Ex.71, 3-(3-fluoropyridin-2-yl)-2-hydroxycyclohepta-2,4,6-trien-1-one]", "Liposome Fe transport Kefflux at 10 μM": "0.1-5"},
      {"molecule": "O=c1ccccc(-c2ccc(F)cn2)c1S", "note": "[Ex.72, 3-(5-fluoropyridin-2-yl)-2-mercaptocyclohepta-2,4,6-trien-1-one]", "Liposome Fe transport Kefflux at 10 μM": "7.5-10"},
      {"molecule": "O=C1C=CC(CCc2nc(-c3ccccc(=O)c3O)ccc2F)S1", "note": "(stereo not drawn) [Ex.74, 5-(2-(3-fluoro-6-(2-hydroxy-3-oxocyclohepta-1,4,6-trien-1-yl)pyridin-2-yl)ethyl)thiophen-2(5H)-one]", "Liposome Fe transport Kefflux at 10 μM": "0.1-5"},
      {"molecule": "Cc1cccc(Oc2ccc(F)cc2F)c(O)c1=O", "note": "[Ex.77, 3-(2,4-difluorophenoxy)-2-hydroxy-7-methylcyclohepta-2,4,6-trien-1-one]", "Liposome Fe transport Kefflux at 10 μM": "0.1-5"},
      {"molecule": "Cc1cccc(Oc2ccccc2)c(O)c1=O", "note": "[Ex.78, 2-hydroxy-7-methyl-3-phenoxycyclohepta-2,4,6-trien-1-one]", "Liposome Fe transport Kefflux at 10 μM": "0.1-5"},
      {"molecule": "O=c1ccccc(-c2cocn2)c1O", "note": "[Ex.79, 2-hydroxy-3-(oxazol-4-yl)cyclohepta-2,4,6-trien-1-one]", "Liposome Fe transport Kefflux at 10 μM": "5-7.5"},
      {"molecule": "O=c1ccccc(-c2nccs2)c1O", "note": "[Ex.80, 2-hydroxy-3-(thiazol-2-yl)cyclohepta-2,4,6-trien-1-one]", "Liposome Fe transport Kefflux at 10 μM": "5-7.5"},
      {"molecule": "O=c1c(F)cccc(-c2cscn2)c1O", "note": "[Ex.81, 7-fluoro-2-hydroxy-3-(thiazol-4-yl)cyclohepta-2,4,6-trien-1-one]", "Liposome Fe transport Kefflux at 10 μM": "7.5-10"},
      {"molecule": "O=c1c(Cl)cccc(-c2cscn2)c1O", "note": "[Ex.82, 7-chloro-2-hydroxy-3-(thiazol-4-yl)cyclohepta-2,4,6-trien-1-one]", "Liposome Fe transport Kefflux at 10 μM": "0.1-5"},
      {"molecule": "O=c1ccc(F)cc(-c2cscn2)c1O", "note": "[Ex.83, 5-fluoro-2-hydroxy-3-(thiazol-4-yl)cyclohepta-2,4,6-trien-1-one]", "Liposome Fe transport Kefflux at 10 μM": "0.1-5"},
      {"molecule": "COC(=O)Cc1ccc(Oc2ccccc(=O)c2O)c(F)c1", "note": "[Ex.84, methyl 2-(3-fluoro-4-((2-hydroxy-3-oxocyclohepta-1,4,6-trien-1-yl)oxy)phenyl)acetate]", "Liposome Fe transport Kefflux at 10 μM": "5-7.5"},
      {"molecule": "O=c1ccccc(-c2ccns2)c1O", "note": "[Ex.85, 2-hydroxy-3-(isothiazol-5-yl)cyclohepta-2,4,6-trien-1-one]", "Liposome Fe transport Kefflux at 10 μM": "0.1-5"},
      {"molecule": "COC(=O)c1ccc(Oc2ccccc(=O)c2O)c(F)c1", "note": "[Ex.86, methyl 3-fluoro-4-((2-hydroxy-3-oxocyclohepta-1,4,6-trien-1-yl)oxy)benzoate]", "Liposome Fe transport Kefflux at 10 μM": "0.1-5"},
      {"molecule": "O=c1ccc(C(CO)Cc2ccccc2)cc(-c2cscn2)c1O", "note": "(stereo not drawn) [Ex.87, 2-hydroxy-5-(1-hydroxy-3-phenylpropan-2-yl)-3-(thiazol-4-yl)cyclohepta-2,4,6-trien-1-one]", "Liposome Fe transport Kefflux at 10 μM": "0.1-5"}
    ]}
  ]
}
